Columns and labels:
Assay in all cases: relative viability (nuclei count vs DMSO), 5 days (fraction); higher = more cells survive
[1] = compound: C#Cc1cccc(Nc2ncnc3cc(OCCOC)c(OCCOC)cc23)c1 [Erlotinib] + Cc1cc(Nc2cc(N3CCN(C)CC3)nc(Sc3ccc(NC(=O)C4CC4)cc3)n2)n[nH]1 [Tozasertib] (partner 0.1 µM)
Outline: (§1)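 Relative viability was taken as the ratio of nuclei in treated wells to nuclei in vehicle wells. Lung cancer cell lines in 1536-well plates received compounds by pin tool one day after seeding, either one drug alone or a fixed anchor-drug dose plus five library-drug doses (not always all listed) in √10 steps. Nuclei were counted on 4× images after 5 days of treatment, and values are medians of duplicate plates.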

[2] = compound: O=C(Nc1c[nH]nc1-c1nc2ccc(CN3CCOCC3)cc2[nH]1)NC1CC1 [AT9283] + CC1(C)CCC(c2ccc(Cl)cc2)=C(CN2CCN(c3ccc(C(=O)NS(=O)(=O)c4ccc(N[C@H](CCN5CCOCC5)CSc5ccccc5)c(S(=O)(=O)C(F)(F)F)c4)cc3)CC2)C1 [Navitoclax] (partner 0.5 µM)
Outline: as §1

[3] = compound: C#Cc1cccc(Nc2ncnc3cc(OCCOC)c(OCCOC)cc23)c1 [Erlotinib] + O=C(CCCCCCC(=O)Nc1ccccc1)NO [Vorinostat] (partner 1 µM)
Outline: as §1

[4] = compound: C#Cc1cccc(Nc2ncnc3cc(OCCOC)c(OCCOC)cc23)c1 [Erlotinib] + CC(=O)Nc1cccc(-n2c(=O)n(C3CC3)c(=O)c3c(Nc4ccc(I)cc4F)n(C)c(=O)c(C)c32)c1 [Trametinib] (partner 0.02 µM)
Outline: as §1

[5] = compound: C#Cc1cccc(Nc2ncnc3cc(OCCOC)c(OCCOC)cc23)c1 [Erlotinib] + CS(=O)(=O)CCNCc1ccc(-c2ccc3ncnc(Nc4ccc(OCc5cccc(F)c5)c(Cl)c4)c3c2)o1 [Lapatinib] (partner 2 µM)
Outline: as §1

Cell Line	relative viability ([1]; first compound 0.02 µM)	relative viability ([1]; first compound 0.2 µM)	relative viability ([1]; first compound 0.6325 µM)	relative viability ([1]; first compound 2 µM)	relative viability ([2]; first compound 0.003 µM)	relative viability ([2]; first compound 0.03 µM)	relative viability ([2]; first compound 0.09487 µM)	relative viability ([2]; first compound 0.3 µM)	relative viability ([3]; first compound 0.2 µM)	relative viability ([3]; first compound 0.6325 µM)	relative viability ([3]; first compound 2 µM)	relative viability ([4]; first compound 0.02 µM)	relative viability ([4]; first compound 0.2 µM)	relative viability ([4]; first compound 0.6325 µM)	relative viability ([4]; first compound 2 µM)	relative viability ([5]; first compound 0.02 µM)	relative viability ([5]; first compound 0.2 µM)	relative viability ([5]; first compound 0.6325 µM)	relative viability ([5]; first compound 2 µM)	relative viability ([3]; first compound 0.02 µM)
NCI-H1437	0.406	0.403	0.448	0.357	1.17	0.832	0.265	0.178	0.873	0.818	0.667	0.534	0.322	0.373	0.371	0.788	0.812	1	0.726	–
NCI-H1650	0.465	0.332	0.305	0.217	1.34	1	0.29	0.232	0.559	0.488	0.411	0.477	0.443	0.561	0.382	0.705	0.728	0.899	0.828	0.556
NCI-H1651	0.671	–	0.606	0.282	1.09	0.956	0.489	0.231	0.541	0.564	0.462	0.881	0.814	0.877	0.84	0.906	0.693	1.02	0.768	0.533
NCI-H1666	0.551	0.523	0.498	0.482	1.08	0.885	0.432	0.315	0.963	0.775	0.78	0.904	0.736	0.78	0.709	0.714	0.552	0.698	0.699	–
NCI-H1734	0.259	0.238	0.273	0.273	0.839	0.318	0.131	0.127	–	0.938	0.81	0.74	0.718	0.619	0.634	1.15	1.02	1.3	1	0.954
NCI-H1755	–	0.561	0.505	0.422	0.988	0.876	0.482	0.281	0.762	0.772	0.716	0.793	0.774	0.816	0.737	–	1.06	1.09	1.02	0.827
NCI-H1793	0.307	0.258	0.235	0.161	0.533	0.429	0.231	0.164	0.36	0.551	0.441	0.472	0.411	0.411	0.334	–	0.517	0.916	0.591	0.841
NCI-H1915	0.45	0.405	0.408	0.262	0.657	0.72	0.504	0.174	0.529	0.508	0.485	0.304	0.308	0.329	0.285	1.01	0.987	–	0.992	0.536
NCI-H1944	0.249	0.21	0.227	0.174	1.03	0.865	0.652	0.235	0.388	0.48	0.35	0.385	0.326	0.361	0.295	0.79	0.65	1.05	0.816	0.497
NCI-H1975	0.773	0.549	0.251	0.142	1.11	1.18	0.971	0.282	0.726	0.701	0.58	0.368	0.32	0.404	0.348	–	0.885	0.908	–	0.722
NCI-H1993	0.574	0.518	0.569	0.591	0.872	0.905	0.586	0.466	0.724	0.633	0.461	0.597	0.491	0.497	0.465	0.961	0.795	0.698	0.827	0.811
NCI-H2009	0.751	0.746	0.834	0.62	1.26	0.681	0.391	0.284	0.713	0.775	0.667	0.385	0.306	0.301	0.239	0.971	1.03	1.07	0.889	0.758
NCI-H2023	0.365	0.241	0.165	0.188	1.04	0.71	0.383	0.119	0.475	0.645	0.47	0.558	0.369	0.418	0.32	0.737	0.651	0.965	–	0.754
NCI-H2085	0.808	0.637	0.598	0.404	1.05	0.815	0.671	0.244	0.649	0.724	0.535	0.494	0.496	0.513	0.306	0.775	0.74	0.845	–	0.78
NCI-H2087	0.259	0.279	0.191	0.132	0.985	0.713	0.273	0.186	0.788	0.765	0.434	0.219	0.185	0.19	0.138	0.996	1.15	1.16	0.921	0.778
NCI-H2126	0.841	0.691	0.674	0.481	0.871	0.892	0.634	0.319	0.529	0.438	0.416	0.569	0.467	0.441	0.496	0.771	0.763	0.788	0.727	0.688
